This experiment has as its target Mushroom Tyrosinase (Sigma T3824). As to the kind of experiment: General in vitro tyrosinase inhibition assay (L-Dopa oxidation to dopachrome). It counts as biochemical. The note with it: for EC50: 0.5 mM L-Dopa, pH 7.0, 30° C., 475 nm, 18 Units Mushroom Tyrosinase.

From patent US20080286219A1, “Hydroquinone derivative skin brightening compounds” (priority 2007, published 2008) come the findings set out here.

One may read the EC50 as the concentration that produces a half-maximal response. A lower EC50 goes with a more potent agent.

Consider `N[C@@H](CSc1cc(O)ccc1O)C(=O)O` [Compound X29876-063], for which the EC50 stood at 20 µM. Also, where the note is “compared to HQ”, the “fold more potent than HQ” value is recorded as “about 25 fold”.
Consider `CCOC(=O)CSc1cc(O)ccc1O` [Compound X29876-169], for which the EC50 was found to be 3280 µM.
The same measure, in the same setting: for `CC(=O)N[C@@H](CSc1cc(O)ccc1O)C(=O)O` [Compound X29876-018] the value was 4850 µM.
On the same count and under the same terms, for `CC(C)(Sc1cc(O)ccc1O)C(N)C(=O)O` (stereo not shown) [Compound X29876-144] the value was 70 µM; for `Oc1ccc(O)c(SCc2cccs2)c1` [Compound X29876-198], 200 µM; for `CC(=O)C(C)Sc1cc(O)ccc1O` (stereo not shown) [Compound X29876-181], 310 µM.
The same measure, in the same setting: then `Oc1ccc(O)cc1` [Hydroquinone, hydroquinone], with 620 µM; and `C[C@H](CSc1cc(O)ccc1O)C(=O)N1CCC[C@H]1C(=O)O` [Compound X29876-155], with 12200 µM; and `CCOC(=O)[C@@H](N)CSc1cc(O)ccc1O` [Compound X29876-064], with 250 µM.
Consider `NC(CCC(=O)NC(CSc1cc(O)ccc1O)C(=O)NCC(=O)O)C(=O)O` (stereo not shown) [Compound X29876-019], for which the EC50 came to 10400 µM. This EC50 lies about 42-fold higher than the previous one.
`N[C@H](CSc1cc(O)ccc1O)C(=O)O` [Compound X29876-147] had an EC50 of 30 µM.
With `COC(=O)[C@@H](N)CSc1cc(O)ccc1O` [Compound X29876-145], the EC50 was 130 µM.
The molecule `Cc1nc(Sc2cc(O)ccc2O)sc1CC(=O)O` [Compound X29876-160] yielded a half-maximal effective concentration (EC50) of 520 µM.
Same read-out and setting: for `OCCCCCCSc1cc(O)ccc1O` [Compound X29876-162] the value was 10 µM; for `O=C(O)CSc1cc(O)ccc1O` [Compound X29876-163], 9410 µM.
